The text below walks through data of patent US12036312B2, “Non-aqueous topical compositions comprising a halogenated salicylanilide” (priority 2016, dated 2024).

The structures appear in SMILES notation.

For the test, the system named is MRSA 01. Nature of the test: Time-kill assay. As to conditions: initial inoculum 7 log10 cfu/ml, niclosamide 4 μg/ml [MIC×10]. Type of test: cell-based, Staphylococcus aureus. The procedure: This assay was performed in 20 ml of medium. It included a negative control (medium without bacteria), a positive control (bacteria grown without niclosamide) and the assay (bacteria grown with niclosamide). […] This experiment was performed with the primary test microorganism indicated above.
The overnight culture was stopped and OD600 was measured. Culture was then diluted in indicated medium to obtain an OD600 of 0.25 in order to have about 5×10^8 cfu/ml. Two hundred μl of this diluted culture were then added in all conditions except in the negative control. Initial bacterial concentration was about 5×10^6 cfu/ml. Tubes were incubated aerobically at 37° C. for 24 hours.
Bacteria were enumerated before the incubation, after 30 minutes, 1, 2, 4, 8 and 24 hours of incubation by serial dilutions in NaCl 0.9% and plating on LB agar, with 2 plates per dilution. Plates were incubated at 37° C. and colonies enumerated after 24 hours.

As for `O=C(Nc1ccc([N+](=O)[O-])cc1Cl)c1cc(Cl)ccc1O` [Niclosamide, niclosamide], the “bactericidal or bacteriostatic effect” value is “bacteriostatic effect”.
